Laboratory results from PubChem BioAssay (NCI).
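Five compound concentrations were applied to cells in 96-well plates for 48 hours; endpoints were derived by simple linear interpolation of the resulting dose-response curve. At the GI50, growth is halved. TGI denotes the concentration required for complete inhibition of growth.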

Columns and labels:
Experiment in all cases: NCI tumour cell line growth inhibition, 48 h
[1] = system: SK-MEL-5 melanoma
[2] = system: SNB-75 CNS
[3] = system: SN12C renal
[4] = system: MALME-3M melanoma
[5] = system: IGROV1 ovarian
[6] = system: SW-620 colon
[7] = system: SF-539 CNS
[8] = system: HOP-62 NSCLC
[9] = system: OVCAR-4 ovarian
[10] = system: HT29 colon

CCCCCCCCCCCCCCCC1=NC(C)(C)CN1C(C)C
GI50 [1]: 1.68 µM
TGI [1]: 3.04 µM
GI50 [2]: 1.47 µM
TGI [2]: 2.94 µM
GI50 [3]: 1.38 µM
TGI [3]: 2.89 µM
GI50 [4]: 1.64 µM
TGI [4]: 3.35 µM
GI50 [5]: 1.12 µM
TGI [5]: 2.41 µM
GI50 [6]: 1.52 µM
TGI [6]: 2.85 µM
GI50 [7]: 1.63 µM
TGI [7]: 2.98 µM
GI50 [8]: 1.63 µM
TGI [8]: 2.98 µM
GI50 [9]: 2.04 µM
TGI [9]: 6.37 µM

COc1cc2c3c(n(C)c(=O)c2cc1OC)-c1cc2c(cc1/C3=C\CCNCCCN)OCO2
GI50 [10]: 1.86 µM
TGI [10]: > 100 µM
GI50 [2]: 11.4 µM
TGI [2]: > 100 µM
GI50 [3]: 1.18 µM
TGI [3]: 8.41 µM
GI50 [4]: 0.863 µM
TGI [4]: 4.02 µM
GI50 [5]: 1.82 µM
TGI [5]: > 100 µM
GI50 [7]: 1.65 µM
TGI [7]: 9.95 µM
GI50 [8]: 3.85 µM
TGI [8]: 15.6 µM
GI50 [9]: 1.04 µM
TGI [9]: 7.56 µM

C=CC1=C(C)C2=NC1=CC1=NC(=C(CC)/C1=C\O)C=C1N=C3C(=C1C)C(=O)[C@H](C(=O)OC)C3=C1NC(=C2)[C@@H](C)[C@@H]1CCC(=O)O
TGI [1]: > 100 µM
TGI [10]: > 100 µM
TGI [2]: > 100 µM
TGI [3]: > 100 µM
TGI [4]: > 100 µM
TGI [5]: > 100 µM
TGI [6]: > 100 µM
TGI [7]: > 100 µM
TGI [9]: > 100 µM

N#CC1C=Cc2c(ccc3ccccc23)N1C(=O)c1ccccc1 (stereo not given)
GI50 [1]: 0.132 µM
TGI [1]: > 42.5 µM
GI50 [10]: 0.0701 µM
TGI [10]: 3.82 µM
GI50 [2]: 0.226 µM
TGI [2]: 63.8 µM
GI50 [3]: 1.15 µM
TGI [3]: > 100 µM
GI50 [5]: 0.105 µM
TGI [5]: 3.23 µM
GI50 [6]: 0.0657 µM
TGI [6]: > 75.2 µM
GI50 [7]: 0.238 µM
GI50 [8]: 0.387 µM
TGI [8]: > 100 µM
GI50 [9]: 1.47 µM
TGI [9]: > 100 µM

O=[N+]([O-])c1ccc(C=NC23CC4CC(CC(C4)C2)C3)cc1
TGI [10]: > 100 µM
TGI [2]: > 100 µM
TGI [3]: > 100 µM
TGI [4]: > 100 µM
TGI [5]: > 100 µM
TGI [7]: > 100 µM
TGI [8]: > 100 µM
TGI [9]: > 100 µM

NNC(=O)C(=O)N/N=C(\CCC(=O)Nc1ccc(Cl)cc1)Cc1nc2ccccc2s1
TGI [1]: 43.6 µM
TGI [10]: > 100 µM
TGI [2]: > 100 µM
TGI [3]: > 100 µM
TGI [4]: > 100 µM
TGI [5]: 51.3 µM
TGI [6]: > 100 µM
TGI [7]: 90.4 µM
TGI [8]: > 100 µM

O=C(CCCCC(=O)N/N=C\c1ccccc1O)N/N=C\c1ccccc1O
GI50 [1]: 3.22 µM
TGI [1]: > 100 µM
GI50 [10]: > 100 µM
TGI [10]: > 100 µM
GI50 [2]: 3.39 µM
TGI [2]: 20.5 µM
GI50 [3]: 4.5 µM
TGI [3]: > 100 µM
GI50 [5]: 3.49 µM
TGI [5]: > 100 µM
GI50 [7]: 3.66 µM
TGI [7]: > 100 µM
GI50 [8]: 4.12 µM
TGI [8]: 71.8 µM
GI50 [9]: 1.73 µM
TGI [9]: > 100 µM

O=C1c2ccccc2C(=O)c2[nH]c(Cc3ccc(F)cc3)nc21
TGI [10]: 30.3 µM
TGI [2]: 38.3 µM
TGI [3]: 51.3 µM
TGI [4]: 29.6 µM
TGI [5]: 26.2 µM
TGI [6]: 38.3 µM
TGI [7]: 32 µM
TGI [8]: 44.3 µM
TGI [9]: 34.9 µM

C=C1C(=O)O[C@H]2[C@H]1CC/C(COC(=O)NCc1ccc(Cn3c(=O)sn(-c4ccccc4)c3=O)cc1)=C\CC[C@@]1(C)O[C@@H]21
GI50 [1]: 3.24 µM
TGI [1]: 11.5 µM
GI50 [10]: 2.15 µM
TGI [10]: 4.14 µM
GI50 [3]: 2.14 µM
TGI [3]: 5.1 µM
GI50 [4]: 2.09 µM
TGI [4]: 4.06 µM
GI50 [5]: 2.09 µM
TGI [5]: 4.2 µM
GI50 [6]: 1.91 µM
TGI [6]: 3.78 µM
GI50 [7]: 1.57 µM
TGI [7]: 3.06 µM
GI50 [8]: 12.4 µM
TGI [8]: 26.3 µM
GI50 [9]: 2.74 µM
TGI [9]: 8.19 µM
